Results reported in article PMC9841532, “Exploring the Effect of Halogenation in a Series of Potent and Selective A2B Adenosine Receptor Antagonists” (Journal of Medicinal Chemistry, 2022).
Values after ≈ are worked out from the molar mass of the structure shown. Where two headings read alike, the source gives them in different places.

Legend:
[1] = biological target: T1, hA1AR (Homo sapiens, UniProt P30542); experiment: Radioligand binding competition, [3H]DPCPX, membranes from CHO-A1 cells; settings: for % at 1 μM hA1 (percentage displacement of specific binding): [3H]DPCPX, human CHO cells, n = 2
T1 sequence (P30542 1-326): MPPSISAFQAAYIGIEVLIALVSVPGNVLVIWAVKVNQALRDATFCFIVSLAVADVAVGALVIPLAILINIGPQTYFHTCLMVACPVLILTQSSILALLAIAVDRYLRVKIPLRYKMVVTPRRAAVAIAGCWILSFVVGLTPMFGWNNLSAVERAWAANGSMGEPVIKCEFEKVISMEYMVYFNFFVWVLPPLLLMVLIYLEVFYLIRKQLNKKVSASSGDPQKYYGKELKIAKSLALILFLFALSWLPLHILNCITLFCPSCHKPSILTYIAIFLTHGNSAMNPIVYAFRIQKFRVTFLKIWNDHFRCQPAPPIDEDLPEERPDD
Procedure, shortened: (§1)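 Racemates, plus selected enantiomers after chiral resolution, were tested at 25 °C, with a 60 min incubation for one subtype and 30 min for others. Non-specific binding was defined with 10 μM or 100 μM R-PIA. Bound radioactivity was counted after washing and filtration.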

[2] = biological target: T2, hA2AAR (Homo sapiens, UniProt P29274); experiment: Radioligand binding competition, [3H]ZM241385, membranes from HeLa-A2A cells; settings: for % at 1 μM hA2A (percentage displacement of specific binding): [3H]ZM241385, human HeLa cells, n = 2
T2 construct: expressed in transfected cells; host or cells: HeLa (HeLa-A2A) cell membranes
T2 sequence (P29274 whole entry): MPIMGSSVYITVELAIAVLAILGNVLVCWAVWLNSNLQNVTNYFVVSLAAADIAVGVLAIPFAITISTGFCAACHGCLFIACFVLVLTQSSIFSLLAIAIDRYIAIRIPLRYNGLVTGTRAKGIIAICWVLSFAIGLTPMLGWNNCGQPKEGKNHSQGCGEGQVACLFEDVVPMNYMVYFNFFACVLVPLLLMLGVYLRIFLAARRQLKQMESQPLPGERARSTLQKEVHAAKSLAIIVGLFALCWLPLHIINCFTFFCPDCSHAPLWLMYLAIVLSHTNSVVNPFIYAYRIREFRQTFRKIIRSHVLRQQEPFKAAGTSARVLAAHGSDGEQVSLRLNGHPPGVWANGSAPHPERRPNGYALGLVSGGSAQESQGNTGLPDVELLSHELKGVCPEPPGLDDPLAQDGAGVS
Procedure, shortened: as §1

[3] = biological target: T3, hA2BAR (Homo sapiens, UniProt P29275); experiment: Radioligand binding competition, [3H]DPCPX, membranes from HEK-293-A2B cells; set-up: Exp. dG: unit not given here; settings: for Ki: read-out: Ki hA2B; for Exp. dG: experimental binding free energy, Supplementary Table S3, unit not given (errors in kcal/mol)
T3 construct: host or cells: HEK-293 (HEK-293-A2B) cell membranes
T3 sequence (P29275 1-332): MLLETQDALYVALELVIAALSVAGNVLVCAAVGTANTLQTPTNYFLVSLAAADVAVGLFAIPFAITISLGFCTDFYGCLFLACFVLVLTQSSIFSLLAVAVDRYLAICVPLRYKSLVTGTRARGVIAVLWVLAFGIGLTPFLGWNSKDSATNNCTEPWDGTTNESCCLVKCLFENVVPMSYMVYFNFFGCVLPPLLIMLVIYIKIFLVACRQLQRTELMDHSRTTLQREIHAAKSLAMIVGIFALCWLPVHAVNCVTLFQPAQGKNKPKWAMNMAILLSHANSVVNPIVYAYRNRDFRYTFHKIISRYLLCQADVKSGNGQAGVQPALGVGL
Procedure, shortened: as §1

[4] = biological target: T4, hA3AR (Homo sapiens, UniProt P0DMS8); experiment: Radioligand binding competition, [3H]NECA, membranes from HeLa-A3 cells; settings: 1 μM, [3H]NECA, human HeLa cells, n = 2
T4 construct: expressed in transfected cells; host or cells: HeLa (HeLa-A3) cell membranes
T4 sequence (P0DMS8 1-318): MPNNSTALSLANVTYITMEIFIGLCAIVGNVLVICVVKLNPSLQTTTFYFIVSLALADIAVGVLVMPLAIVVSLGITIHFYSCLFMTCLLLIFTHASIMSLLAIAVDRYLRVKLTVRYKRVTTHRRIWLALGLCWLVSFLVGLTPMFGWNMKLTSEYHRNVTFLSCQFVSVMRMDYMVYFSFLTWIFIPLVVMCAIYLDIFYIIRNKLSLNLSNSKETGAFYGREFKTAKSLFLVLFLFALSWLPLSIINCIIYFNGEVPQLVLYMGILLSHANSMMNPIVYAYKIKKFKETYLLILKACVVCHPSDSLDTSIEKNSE
Procedure, shortened: as §1

[5] = Solubility determination (nephelometry); type: physicochemical; settings: 1:99 DMSO/PSB buffer, PBS pH 7, 37 °C
Experimental: The solubility of selected compounds was evaluated by following a previously described method.[31] A 10 mM stock solution of the compound was serially diluted in 100% DMSO, and 2.5 μL of this solution was added to a 384-well UV-transparent plate (Greiner) containing 47.5 μL of PBS (pH = 7). The plate was incubated at 37 °C for 4 h, and the light scattering was measured in a NEPHELOstar Plus reader (BMG LABTECH). The data was fitted to a segmented linear regression for measuring the compound solubility.

[6] = Human microsomal stability; type: in vitro ADME; settings: human microsomes; for microsomal stability percent (percentage remanent): sampling time 60 min; for microsomal CLint at 1 h / half-life at 1 h: human, pH 7.4; for microsomal CLint at 1 h: read-out: microsomal stability Clint (intrinsic clearance); for half-life at 1 h: read-out: microsomal stability t1/2
Experimental: The human microsomal stability of selected compounds was evaluated by following a previously described method.[31] The human microsomes employed were purchased from Tebu-Xenotech. The compound was incubated with the microsomes at 37 °C in a 50 mM phosphate buffer (pH = 7.4) containing 3 mM MgCl2, 1 mM NADP, 10 mM glucose-6-phosphate, and 1 U/mL glucose-6-phosphate-dehydrogenase. Samples (75 μL) were taken from each well at 0, 10, 20, 40, and 60 min and transferred to a plate containing 4 °C 75 μL acetonitrile and 30 μL of 0.5% formic acid in water was added for improving the chromatographic conditions. The plate was centrifuged (46,000 g, 30 min), and supernatants were taken and analyzed in a UPLC-MS/MS (Xevo TQD, Waters) by employing a BEH C18 column and an isocratic gradient of 0.1% formic acid in water:0.1% formic acid acetonitrile (60:40). The metabolic stability of the compounds was calculated from the logarithm of the remaining compounds at each of the time point studied.

[7] = biological target: T5, CYP3A4 (Homo sapiens, UniProt P08684); experiment: CYP3A4 inhibition (fluorescence, substrates DBF or 7-BFC); type: biochemical; settings: for IC50: IC50 obtained by extrapolation with analysis software
T5 construct: host or cells: insect cell microsomes
T5 sequence (P08684 whole entry): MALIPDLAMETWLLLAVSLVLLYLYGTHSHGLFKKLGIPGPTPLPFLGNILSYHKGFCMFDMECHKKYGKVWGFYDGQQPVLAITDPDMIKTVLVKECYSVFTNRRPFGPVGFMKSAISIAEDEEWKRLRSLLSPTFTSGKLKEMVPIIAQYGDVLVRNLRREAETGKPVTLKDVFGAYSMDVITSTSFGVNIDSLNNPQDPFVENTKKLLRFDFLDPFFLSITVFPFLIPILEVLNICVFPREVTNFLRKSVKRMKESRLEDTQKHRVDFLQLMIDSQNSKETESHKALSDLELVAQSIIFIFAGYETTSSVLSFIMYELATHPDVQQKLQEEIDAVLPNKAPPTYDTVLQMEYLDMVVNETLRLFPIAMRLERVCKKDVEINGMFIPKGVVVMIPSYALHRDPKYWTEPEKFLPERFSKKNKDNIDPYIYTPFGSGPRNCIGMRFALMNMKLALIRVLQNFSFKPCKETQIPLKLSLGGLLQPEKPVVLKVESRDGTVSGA
Experimental: To identify potential metabolic liabilities within the series here documented, the selected A2BAR antagonists were tested in vitro for CYP3A4 inhibitory activity.
The inhibitory activity of selected compounds was evaluated by following a previously described method.[31] […] The plate was then pre-incubated at 37 °C for 5 min and the reaction initiated by the addition of a pre-warmed enzyme/substrate (E/S) mix. The E/S mix contained buffer (KH2PO4), c-DNA-expressed P450 in insect cell microsomes, substrate (DBF: dibenzylfluorescein or 7-BFC: 7-benzyloxy-4-trifluoromethyl-coumarin) and other components to give the final assay concentrations in a reaction volume of 200 μL. Reactions were terminated after various times (a specific time for each cytochrome) by addition of STOP solution (ACN/Tris–HCl 0.5 M 80:20, and NaOH 2 N for CYP3A4). Fluorescence per well was measured using a fluorescence plate reader (Tecan Infinite M1000 PRO), and percentage of inhibition was calculated. In silico predictions were performed using free web-based models (FAME 3, SmartCYP, and Xenosite).[62]−[64]

[8] = biological target: T1, hA1AR; settings: prototype series, [3H]DPCPX, human CHO cells ref 30, 31; cited from earlier work
[9] = biological target: T2, hA2AAR; settings: prototype series, human HeLa cells ref 30, 31; cited from earlier work
[10] = biological target: T4, hA3AR; settings: prototype series, [3H]NECA, human HeLa cells ref 30, 31; cited from earlier work
[11] = biological target: A2B; settings: Figure 1, representative A2B antagonists ref 28-32; read-out: Ki; cited from earlier work
[12] = displacement of specific [3H]DPCPX binding in human HEK-293 cells, n = 3
[13] = substrate 7-benzyloxy-4-trifluoromethyl-coumarin
[14] = substrate 7-benzyloxy-4-trifluoromethyl-coumarin, read-out: CYP3A4 IC50, 7-BFC
[15] = substrate dibenzylfluorescein, read-out: CYP3A4 IC50, DBF

% at 1 μM hA1 (percentage displacement of specific binding) [1]	% at 1 μM hA2A (percentage displacement of specific binding) [2]	Ki [3, 12]	% at 1 μM hA3 (percentage displacement of specific binding) [4]	solubility at 4 h [5]	microsomal stability percent (percentage remanent) [6]	microsomal CLint at 1 h [6]	half-life at 1 h [6]	CYP3A4 % inh. at 10 μM, 7-BFC [7, 13]	CYP3A4 % inh. at 10 μM, DBF ([7]; substrate dibenzylfluorescein)	Exp. dG [3]	IC50 [7, 14]	IC50 [7, 15]	Ki [3]	Compound	% at 1 μM hA1 (percentage displacement of specific binding) [8]	% at 1 μM hA2A (percentage displacement of specific binding) [9]	% at 1 μM hA3 (percentage displacement of specific binding) [10]	also measured
13%	22%	11.9 ± 1.1 nM	14%	62 µM (≈ 23.1 µg/mL)	20.97%	21.6 µL/min/mg	28.9 min	58%	39%	–	–	–	–	CC1=C(C(=O)OC(C)C)C(c2ccco2)n2c(nc3cc(F)c(F)cc32)N1 (stereo not drawn) [14b]	–	–	–	–
–	17%	44.3 ± 1.4 nM	5%	58.2 µM (≈ 21.6 µg/mL)	16.83%	26.4 µL/min/mg	21.1 min	11%	47%	-10.03	> 10 µM	> 10 µM	–	CC1=C(C(=O)OC(C)C)C(c2ccco2)n2c(nc3ccc(Cl)cc32)N1 (stereo not drawn) [15j]	–	–	–	Ki ([1]; displacement of specific [3H]DPCPX binding in human CHO cells, n = 3, read-out: Ki hA1): 667 ± 12 nM
27%	–	6.1 ± 0.7 nM	1%	21.9 µM (≈ 8.14 µg/mL)	41.02%	11.7 µL/min/mg	44.8 min	44%	–	-11.2	> 10 µM	6.36 ± 1.02 µM	< 10 nM	CC1=C(C(=O)OC(C)C)C(c2ccoc2)n2c(nc3cc(Cl)ccc32)N1 (stereo not drawn) [16l]	–	–	–	Ki ([2]; displacement of specific [3H]ZM241385 binding in human HeLa cells, n = 3, read-out: Ki hA2A): 176 ± 4 nM
29%	20%	6.1 ± 0.3 nM	20%	64.6 µM (≈ 23 µg/mL)	35.15%	12.8 µL/min/mg	40.8 min	52%	31%	-11.2	–	> 10 µM	< 10 nM	CC1=C(C(=O)OC(C)C)C(c2cocn2)n2c(nc3cc(F)ccc32)N1 (stereo not drawn) [18b]	–	–	–	–
–	–	3.49 ± 0.2 nM	–	–	–	–	–	–	–	-11.53	–	–	–	CC1=C(C(=O)OC(C)C)C(c2ccco2)n2c(nc3ccccc32)N1 (stereo not drawn) [II, reference compound]	20%	28%	2%	% at 1 μM hA1 (percentage displacement of specific binding) ([1]; listed as (±)-ISAM-140): 20%; % at 1 μM hA1 (percentage displacement of specific binding) ([1]; listed as ISAM-140): 14%; % at 1 μM hA2A (percentage displacement of specific binding) ([2]; listed as (±)-ISAM-140): 28%; % at 1 μM hA2A (percentage displacement of specific binding) ([2]; listed as ISAM-140): 7%; % at 1 μM hA2B (percentage displacement of specific binding) ([3]; 1 μM, [3H]DPCPX, human HEK-293 cells, n = 2): 17%; % at 1 μM hA3 (percentage displacement of specific binding) ([4]; listed as (±)-ISAM-140): 2%; % at 1 μM hA3 (percentage displacement of specific binding) ([4]; listed as ISAM-140): 3%; Ki [11]: 3.49 nM
–	–	–	–	–	–	–	–	–	–	-10.48	–	–	–	CCOC(=O)C1=C(C)Nc2nc3ccccc3n2C1c1ccoc1 (stereo not drawn) [III]	7%	11%	1%	–
